The record followed here is patent US8877773B2, “Methods for treating chronic obstructive pulmonary disease” (Indiana University Research and Technology Corporation, priority 2009, dated 2014).

Each structure is given as a SMILES string. “Also recorded” adds a separate entry of the source.

Format in all cases: in vivo, rat
Assay [1] concerns c-Fos. Kind of assay: c-Fos immunoreactive cell counts in brain regions after FG-7142 challenge. To be noted: FG-7142 7.5 mg/kg ip after vehicle (veh/FG) or SB334867 30 mg/kg ip (SB/FG); 90 min. As to the method:
Fifteen min after the FG-7142 injection, all rats were tested for anxiety behavior using a 5 min open field test (OFT); 5 min social interaction (SI) test; then a 5 min elevated plus maze (EPM) test. Ninety min following FG-7142 injections, rats were anaesthetized and then the brains were removed and processed for immunohistochemistry as described in detail in subsequent section.
Ninety min following the initiation of treatment, rats were anaesthetised with an overdose of sodium pentobarbital (40 mg, i.p.) then perfused transcardially with 0.05 M phosphate buffered saline (PBS; 250 ml), followed by 0.1 M sodium phosphate buffer (PB; 250 ml) containing 4% paraformaldehyde (PFA) and 3% sucrose. Brains were removed and post-fixed for 24 h in the same fixative, rinsed for 24 h in 0.1 M PB, then placed in cryoprotectant (30% sucrose in 0.1 M PB) for an additional 4-5 days. To maintain a consistent plane for coronal sections, brains were placed in a rat brain matrix (ASI instruments, Model No. RBM-4000C) and cut with a razor blade at the caudal border of the mammillary bodies. Brains were frozen in cooled liquid isopentane made by immersing a plastic vessel containing isopentane into a dewar flask containing liquid nitrogen. Serial coronal sections (30 μm) were cut using a cryostat and were immediately placed in cryoprotectant consisting of 27% ethylene glycol and 16% glycerol in 0.05 M PB to yield six alternate sets of sections. Sections were stored at −20° C. until immunohistochemical processing.
All brain sections were immunostained with the c-Fos primary antibody in a single immunohistochemical run, rather than in batches, with large volume incubations to limit variability in the quality of immunohistochemical staining among brain sections. However, the forebrain was immunostained for c-Fos in one run and the brainstem (i.e., midbrain, pons and medulla) in another. Immunostaining for c-Fos protein was accomplished using an affinity-purified primary antibody directed at c-Fos (rabbit anti-human c-Fos polyclonal affinity-purified antibody, Cat. no. sc-52, Santa Cruz Biotechnology, San Diego, Calif.; diluted 1:10,000). Free-floating sections were washed in 0.1 M PBS for 30 min, then incubated in 1% H2O2 in PBS for 20 min. Sections were then washed 10 min in PBS and 20 min in PBS with 0.3% Triton X-100 (PBST). Sections were then incubated 12-16 h in PBST with primary antibody solution at room temperature. After a 30 min wash in PBST, sections were incubated for 2 hr in biotinylated goat anti-rabbit IgG (Cat no. BA-1000, Vector Laboratories, Burlinghame, Calif.; diluted 1:500). Sections were washed again for 30 min in PBST then incubated 1.5 hr in an avidin-biotin-peroxidase complex provided in a standard Vector Elite kit (Cat no. PK-6100, Vector Laboratories, diluted 1:200). The peroxidase substrate for the chromogen reaction was Vector SG, which was prepared as recommended by the manufacturer (Cat. no. SK-4700, Vector Laboratories). The substrate reaction was run for 20 min for the forebrain. All sections were mounted on clean glass slides, dried overnight, dehydrated and mounted with coverslips using DPX mounting medium (BDH Laboratory Supplies, Poole, UK). All washes and incubations were done at room temperature in 12-well polystyrene plates with low frequency shaking on an orbital shaker.
Selection of anatomical levels for analysis of c-Fos-immunostained cells was conducted with reference to illustrations from a rat brain stereotaxic atlas (Paxinos and Watson, 1997). Selection of anatomical levels was also done in reference to major anatomical landmarks including white matter tracts and the ventricular systems.

Assay [2] has as its system FG-7142 treated rats. Kind of assay: FG-7142-induced anxiety: open field, social interaction and elevated plus maze tests. The settings on record: Wistar rats; FG-7142 7.5 mg/kg ip, with or without SB334867 30 mg/kg ip. As to the method:
All experiments were conducted on adult male Wistar rats (250-300 g) purchased from Harlan Laboratories (Indianapolis, Ind. USA) and were housed individually in plastic cages under standard environmental conditions (22° C.; 12/12 light/dark cycle; lights on at 7:00 A.M.) for 7-10 days prior to the surgical manipulations. Food and water were provided ad libitum.
The open-field arena covered an area of 90 cm×90 cm, with 40 cm high walls. The open-field arena was divided into a 6×6 grid of equally-sized squares using black tape (36 total squares) with 4 squares forming the centre; 12 squares forming the middle perimeter; and 20 squares forming the outer perimeter. The test started by placing a rat in the centre. The behavior of each rat in the open-field arena was recorded on video and scored afterwards by an observer blind to the experimental treatment of each rat. Time spent in each region of the open-field was recorded. In addition, locomotor activity was assessed by counting the number of times the rat's entire body (excluding tail) completely crossed into another square.
Following the OFT, the experimental rat was placed in an open field (0.9 m long×0.9 m wide with walls 0.3 m high) with an untreated novel partner rat. A video camera was fixed above the box, and all behavioral tests were videotaped. During the 5 min test the total amount of time the treated rat initiates interaction with the partner rat is recorded (sniffing, grooming etc.) as described previously. Videotaped sessions were scored at a later time by a SDF (blind to treatments) and a decrease in total interaction time was taken as an increase in “anxiety” like behavior.
Following the SI test, rats were place in the center area of the EPM where the two arms intersect. Unlike the SI test, the EPM measures many relevant anxiety related behaviors such as: no. of poke and full entries into and duration spent in closed versus open arm. […] Activity is measured using […] state of the art photobeams (16× beams and 16 Y beams) to provide the highest resolution system available (Automated EPM, Hamilton Kinder Scientific, San diego, CA).

Assay [3] relates to panic-prone (1-AG treated) rats. The assay can be described thus: Sodium lactate (NaLac) challenge in panic-prone rats: radio-telemetry of locomotor and cardiovascular (HR, MAP) responses. To be noted: i.p. 30 min prior to NaLac, SB334867/SB408124 30 mg/kg, alprazolam 3 mg/kg, experiments 4 and 6. The procedure:
Telemetry probes (Data Science International, St. Paul Minn.) were surgically implanted into the abdomen of anaesthetize rats to measure locomotor responses. Cardiovascular responses were measured by a femoral arterial line connected to the telemetric probe which contained a pressure transducer (Data Science International, St. Paul Minn.).
(§1) The minipump was then sutured into place subcutaneously at the nape of the neck. The concentration of the solutions was such that 3.5 nmol/[…] per hour of 1-AG or d-AG was infused continuously into the DMH/PeF region for the remainder of the given experiment. In the case of the siRNA experiments specialized T-cannulae were implanted permitting access to a removable 28 g injector to direct siRNA injections to the same location as the 1-AG infusions. Additionally these rats had guide cannulae directed to the opposite DMH/PeF for bilateral infusion of siRNA.
(§2) Rats received intravenous (i.v.) infusions (10 ml over 15 min of either 0.5M NaLac or 0.9% isotonic saline (when applicable)) using a syringe pump at least five days following the initiation of 1-AG or d-AG infusions. Once a stable baseline was achieved, i.v. infusions began and cardiovascular and activity data were recorded for 15 min (similar to clinical NaLac infusions).
Cardiovascular responses (i.e., MAP and HR) were measured by a femoral arterial line connected to a telemetric probe which contained a pressure transducer (Cat. no. C50-PXT, Data Science International (DSI) St. Paul Minn.). […] MAP and HR were recorded continuously in freely moving conscious rats and are expressed as a 20 min time course. The data reported are changes in HR and MAP from the average of the baseline (t−5 to t−1) from each rat. […]
In experiments 4-6, rats were made panic vulnerable with 1-AG. 5 days after 1-AG onset, in a counterbalanced design, rats received intraperitoneal (i.p.) injections of treatment drug or vehicle 30 min prior to i.v. infusions. […] In experiment 5, baseline in an open field (OF) behavior test of anxiety was assessed (n=8) prior to 1-AG infusions. […] Immediately following the NaLac challenge, rats were placed in the OF test. […] In experiment 6,1-AG treated rats received an injection of an alternative ORX1 receptor antagonist (30 mg/kg SB408124 (N-(6,8-Difluoro-2-methyl-4-quinolinyl)-N′-(4-(dimethylamino)phenyl)urea), Tocris, in 0.2 ml/100 g volume DMSO, n=4) or vehicle (0.2 ml/100 g volume DMSO, n=6) 30 min prior to NaLac. In experiment 7, control rats (no 1-AG or NaLac treatment) were assessed in a SI test.
Adult male Sprague-Dawley rats were anesthetized and surgically implanted with telemetrical probes to measure cardiovascular activity prior to and during lactate infusions. After a 3 day recovery, rats were anaesthetized and had osmotic minipumps (previously filled with 1-AG) stereotaxically implanted unilaterally into the DMH. […] 1960, Tocris, in 0.2 ml/100 g volume DMSO, n=12], alprazolam (3 mg/kg, Sigma, in 0.2 ml/100 g volume DMSO, n=6) or vehicle (0.2 ml/100 g volume DMSO, n=11) 30 min prior lactate challenge.

The test system is the same in assay [4]. Kind of assay: Sodium lactate (NaLac) challenge in panic-prone (1-AG treated) rats: social interaction (SI) test. To be noted: alprazolam 3 mg/kg; for anxiety-like responses (social interaction (SI) duration) after NaLac challenge: i.p. 30 min prior to NaLac, SB334867/SB408124 30 mg/kg, experiments 4 and 6.
From the text: as §1, §2
Another SI test was performed 5 days following minipump infusions and immediately following saline or sodium lactate infusions.
In experiment 3, an RNAase free environment was maintained throughout the injection procedure and all injectors, syringes and tubing were exposed to RNaseZAP and rinsed thoroughly with RNA-free water prior to siRNA injections. […] 48 hrs after siORX or siCON treatment, these rats were exposed to saline or NaLac infusions (siCon/Sal n=4, siORX/Sal n=6, siCON/Lac n=5, siORX/Lac n=6) and SI behavioral and cardiovascular responses were recorded, and were then sacrificed by rapid decapitation, following a brief (30 s) exposure to IsoFlurane® 1 hr after the intravenous infusions.
In experiments 4-6, rats were made panic vulnerable with 1-AG. […] In experiment 5, baseline in an open field (OF) behavior test of anxiety was assessed (n=8) prior to 1-AG infusions. […] In experiment 7, control rats (no 1-AG or NaLac treatment) were assessed in a SI test. […]

Consider `CNC(=O)c1cc2c(cn1)[nH]c1ccccc12` [FG-7142], for which, in assay [1], the “Mean number of c-Fos immunoreactive cells, Amygdala (−2.56 mm bregma) BLA” value worked out at 9 ± 4; the “Mean number of c-Fos immunoreactive cells, Amygdala (−2.56 mm bregma) LA” value came to 10 ± 4; the “Mean number of c-Fos immunoreactive cells, Amygdala (−2.56 mm bregma) MeA” value was determined as 85 ± 18; the “Mean number of c-Fos immunoreactive cells, DRN (−7.80 mm bregma)” value is on record as 1 ± 0. In assay [1], the “Mean number of c-Fos immunoreactive cells, ILC (+2.60 mm bregma)” value came out at 12 ± 6; the “Mean number of c-Fos immunoreactive cells, IPBN (−9.30 mm bregma)” value came to 9 ± 3; the “Mean number of c-Fos immunoreactive cells, LC (−10.04 mm bregma)” value came out at 48 ± 5; the “Mean number of c-Fos immunoreactive cells, LSI (+0.20 mm bregma)” value was 12 ± 4. Besides, in assay [1], the “Mean number of c-Fos immunoreactive cells, PRL (+2.60 mm bregma)” value worked out at 3 ± 1; the “Mean number of c-Fos immunoreactive cells, PeF (−3.14 mm bregma)” value is given as 67 ± 23; the “Mean number of c-Fos immunoreactive cells, mPBN (−9.30 mm bregma)” value is on record as 3 ± 1. Also, the “time in open arms of elevated plus maze” value in assay [2] is listed as “low open arm times”.
For the compound `Cc1cc(NC(=O)Nc2ccc(N(C)C)cc2)c2cc(F)cc(F)c2n1` [SB408124, N-(6,8-Difluoro-2-methyl-4-quinolinyl)-N′-(4-(dimethylamino)phenyl)urea], in assay [3], the “NaLac induced increases in general locomotor activity” value is “did attenuate; also recorded: attenuated”, the “NaLac induced increases in heart rate (HR)” value is given as “did attenuate; also recorded: attenuated” and the “NaLac induced increases in mean arterial blood pressure (MAP)” value is reported as “did not significantly alter”. The “anxiety-like responses (social interaction (SI) duration) after NaLac challenge” value in assay [4] is reported as “did not significantly alter”.
Take `Cc1nnc2n1-c1ccc(Cl)cc1C(c1ccccc1)=NC2` [alprazolam]: in assay [3], the “NaLac induced increases in general locomotor activity” value is recorded as “attenuated”, the “NaLac induced increases in heart rate (HR)” value is given as “attenuated” and the “NaLac induced increases in mean arterial blood pressure (MAP)” value is recorded as “attenuated”. Besides, the “anxiety-like responses (social interaction (SI) duration) after NaLac challenge” value in assay [4] was “attenuated”. Moreover, the “all lactate induced panic-like responses (SI, Activity, HR, MAP)” value in assay [4] (i.p. 30 min prior to lactate, SB334867 30 mg/kg) is on record as “attenuated; also recorded: anti-panic effects”.
